In ChEMBL document CHEMBL3813691, “Quantitative relationships between structure and cytotoxic activity of flavonoid derivatives. An application of Hirshfeld surface derived descriptors” (Bioorg Med Chem Lett, 2016):
pIC50: −log10 of the molar value.

Test system: not listed separately
Assay: Cytotoxicity against human HL60 cells assessed as reduction in cell survival after 46 hrs by MTT assay
Format: functional, cell-based
Conditions: HL-60, 46 h

SMILES	pIC50
O=C1/C(=C\c2ccccc2)C(c2ccccc2)Oc2ccccc21 (stereo not drawn)	4.48
Cc1ccc(C2C3C(=NN2C)c2ccccc2OC3c2ccccc2)cc1 (stereo not drawn)	4.56
CN1N=C2c3cc(O)ccc3OC(c3ccccc3)C2C1c1ccccc1 (stereo not drawn)	4.42
Oc1cccc(C2NN=C3c4ccccc4OC(c4ccccc4)C32)c1 (stereo not drawn)	4.30
O=C1c2ccccc2OC(c2ccccc2)C12N=NCC2c1ccc([N+](=O)[O-])cc1 (stereo not drawn)	4.26
CN1N=C2c3ccccc3OC(c3ccccc3)C2C1c1ccc(Cl)cc1 (stereo not drawn)	5.13
COc1ccc(C2C3C(=NN2C)c2ccccc2OC3c2ccccc2)cc1 (stereo not drawn)	3.27
Oc1ccc(C2NN=C3c4ccccc4OC(c4ccccc4)C32)cc1 (stereo not drawn)	4.38
CN1N=C2c3ccccc3OC(c3ccccc3)C2C1c1cccc(C#N)c1 (stereo not drawn)	4.18
CN1N=C2c3ccccc3OC(c3ccccc3)C2C1c1ccc(F)cc1 (stereo not drawn)	4.01
CN1N=C2c3ccccc3OC(c3ccccc3)C2C1c1ccc(O)cc1 (stereo not drawn)	4.32
c1ccc(C2Oc3ccccc3C3=NNC(c4ccncc4)C32)cc1 (stereo not drawn)	4.30
CN1N=C2c3ccccc3OC(c3ccccc3)C2C1c1ccc(Br)cc1 (stereo not drawn)	5.12
COc1cccc(C2C3C(=NN2C)c2ccccc2OC3c2ccccc2)c1 (stereo not drawn)	4.15
N#Cc1cccc(C2CN=NC23C(=O)c2ccccc2OC3c2ccccc2)c1 (stereo not drawn)	4.12
Oc1ccc2c(c1)C1=NNC(c3ccccc3)C1C(c1ccccc1)O2 (stereo not drawn)	4.56
CN1N=C2c3ccccc3OC(c3ccccc3)C2C1c1ccc(C#N)cc1 (stereo not drawn)	4.70
Cc1cccc(C2C3C(=NN2C)c2ccccc2OC3c2ccccc2)c1 (stereo not drawn)	4.22
CN1N=C2c3ccccc3OC(c3ccccc3)C2C1c1ccccc1 (stereo not drawn)	4.27
CN1N=C2c3ccccc3OC(c3ccccc3)C2C1c1cccc(O)c1 (stereo not drawn)	3.46
COc1cccc(C2CN=NC23C(=O)c2ccccc2OC3c2ccccc2)c1 (stereo not drawn)	4.13

Test system: HUVEC
Assay: Cytotoxicity against HUVEC assessed as reduction in cell survival after 46 hrs by MTT assay
Format: cell-based
Conditions: Homo sapiens

SMILES	pIC50
O=C(/C=C/c1ccccc1Cl)c1ccccc1O	5.11
O=C1/C(=C/c2ccc(Cl)cc2)C(c2ccccc2)Oc2ccccc21 (stereo not drawn)	5.16
CN1N=C2c3ccccc3OC(c3ccccc3)C2C1c1ccc(Cl)cc1 (stereo not drawn)	4.15
CN1N=C2c3ccccc3OC(c3ccccc3)C2C1c1ccc(Br)cc1 (stereo not drawn)	3.74

Test system: not listed separately
Assay: Selectivity ratio of IC50 for HUVEC to IC50 for human HL60 cells
Format: cell-based, HL-60
Conditions: HUVEC and HL60 cells, read-out: Ratio IC50

SMILES	selectivity ratio
CN1N=C2c3ccccc3OC(c3ccccc3)C2C1c1ccc(Cl)cc1 (stereo not drawn)	10
CN1N=C2c3ccccc3OC(c3ccccc3)C2C1c1ccc(Br)cc1 (stereo not drawn)	25

Test system: not listed separately
Assay: Cytotoxicity against human HL60 cells assessed as reduction in cell survival
Format: functional, cell-based
Conditions: HL-60

SMILES	pIC50
COc1cc([C@@H]2c3cc4c(cc3[C@@H](O[C@@H]3O[C@@H]5CO[C@@H](C)O[C@H]5[C@H](O)[C@H]3O)[C@H]3COC(=O)[C@H]23)OCO4)cc(OC)c1O [ETOPOSIDE]	7.60
